US7728128B2, “Dibenzo[c,h][1,5]naphthyridines and their use as DNA probes” (Institut National de la Sante et de la Recherche Medicate …, priority 2006, dated 2010)

How the values were obtained:
[1] = test system: Methanol-fixed primary human fibroblasts; experiment: nuclear fluorescence in fixed cells under continuous illumination; assay type: cell-based
Experimental: Primary human skin fibroblasts were grown on poly-D-lysine-coated glass coverslips and fixed in cold (−20° C.) anhydrous methanol for 15 min. Samples were re-hydrated in PBS (150 mM NaCl, 20 mM Na-phosphate, pH 7.2), rinsed with 10% PBS (diluted with water) and stained with 120 μM compound I in 10% PBS for 15 min at room temperature in the dark. Samples were mounted, without washing, using the FluorSave™ mounting medium (Calbiochem) or Mowiol and analysed within 3 hours. For image acquisition (FIG. 5B,D) cells were illuminated continuously (open shutter) for 30 min using an Omega filter set XF100-2 (see above). […] Fluorescence of each region at the last time point was taken as 100% and fluorescence intensities at the same region at previous time points (frames) were calculated using Microsoft Excel software.
To quantify this effect, live mouse fibroblasts were incubated in the presence of 5 μM compound I and time-lapse video microscopy was used to film the cells. Nuclear fluorescence develops slowly in the nuclei of cells treated with compound I and illuminated continuously using a standard Alexa488/FITC filter set (475AF40, 535AF45) (FIG. 5A). […] To test this possibility, the inventors stained nuclei of fixed cells with compound I and measured nuclear fluorescence during a continuous 30 min illumination. […]

human histone 1 (H1) = experiment: titration of plasmid DNA with dye in absence or presence of histone 1; assay type: biochemical
Xenopus cells XL177 = experiment: visual phenotypic screen on live Xenopus cells XL177; assay type: cell-based
Experimental: In this study, three different types of cells were used: Xenopus epithelial cell line XL177 (Miller, L. et al., 1977, In Vitro, 13, 557-563) stably transformed with a YFP-α-tubulin expressing construct (pEYFP-Tub, Clontech), mouse fibroblasts, and primary human skin fibroblasts. XL177 cells were grown at 20° C. in 60% Leibowitz-15 medium, supplemented with antibiotics, 10% fetal calf serum (FCS) and 10 mM HEPES, pH 7.2 with addition of 0.7 mg/ml G418. Cells were plated into glass-bottom 96-well plates (Greiner, Germany) and left to spread for 24 hours before being incubated in the presence of the test compounds from the Curie-CNRS small molecule library (at 25 or 50 μM final concentration) for another 20-24 hours. Mouse and human fibroblasts were grown in DMEM with antibiotics and 10% FCS at 37° C. in the presence of 5% CO2. The cells were observed using a Zeiss Axiovert 200M microscope with a 40× oil immersion objective and a standard Alexa488/FITC filter (Omega, XF100-2; Ex475AF40/Em535AF45/Dichroic505). Subsequent experiments were carried out using smaller concentrations of compound I and incubation times as described in the text and figures legends. For the in vivo tests of compound I-like compounds, the molecules were added to cell culture medium at 10 μM final concentration and incubated with cells 10-60 min (up to 24 hours) prior to scoring.
The signal appeared after 10-20 sec illumination and was stable for many minutes thereafter (see below).

cell membrane permeability (Xenopus cells XL177; live cells): cell-membrane permeant
SMILES: COc1ccc2c(c1)c(C)nc1c3ccc(OC)cc3c(NCCCN(C)C)nc21 [Compound I, N′-(2,8-dimethoxy-12-methyl-dibenzo[c,h][1,5]naphthyridin-6-yl)-N,N-dimethyl-propane-1,3-diamine]
average pixel values in a representative nucleus ([1]; plane (1), start of 30 min illumination): 512 | average pixel values in a representative nucleus ([1]; plane (1800), end of 30 min illumination): 1434 | effect of H1 on dye/DNA fluorescence (human histone 1 (H1); 1 μM plasmid DNA, 1 μM H1, emission 484 nm, excitation 435 nm): H1 significantly affected the fluorescence | effect of H1 on free dye fluorescence (human histone 1 (H1); excited at 391 nm): not quenched by H1 | illumination time before nuclear signal appeared (Xenopus cells XL177; Alexa488/FITC filter): 10 to 20 s | toxicity in cultured cells (Xenopus cells XL177; standard cell culture conditions): non-toxic under standard cell culture conditions (up to six days in culture)
